According to patent US20240025919A1, “AZA-TETRACYCLIC OXAZEPINE COMPOUNDS AND USES THEREOF” (Genentech, Inc., priority 2022, published 2024):
Like-named read-outs stand apart in the source and are kept apart here.

Legend:
KRAS WT = KRAS WT (Homo sapiens (Human), UniProt P01116); assay: KRAS WT Biochemical Assay, BODIPY-GDP Exchange TR-FRET (Example 501; 3 nM KRAS WT, 3 nM SOS1, 60-minute incubation)
Summary of the method: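 SOS1-mediated exchange assay: 3 nM biotin-KRAS WT with terbium-streptavidin, started with 3 nM SOS1 and 300 nM BODIPY-GDP, HEPES pH 7.5 with MgCl2. TR-FRET (520/490 nm) read after 60 min; normalized to DMSO and full-inhibition control, IC50 from 4-parameter Hill fit.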

KRAS G12D = KRAS G12D (Homo sapiens (Human), UniProt P01116, G12D); assay: KRAS G12D LoEnz Biochemical Assay, BODIPY-GDP Exchange TR-FRET (SOS1-mediated nucleotide exchange); settings: read-out: KRas (G12D) GDP HTRF IC50
[1] = read-out: KRas(wt) GDP HTRF IC50

Chain of KRAS WT (P01116-2 other isoform, or with tags, fused parts or gaps): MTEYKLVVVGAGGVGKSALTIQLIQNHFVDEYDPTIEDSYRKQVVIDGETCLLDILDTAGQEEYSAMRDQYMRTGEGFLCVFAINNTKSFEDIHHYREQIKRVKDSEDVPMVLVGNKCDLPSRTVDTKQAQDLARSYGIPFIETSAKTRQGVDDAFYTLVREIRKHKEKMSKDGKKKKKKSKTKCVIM
Chain of KRAS G12D (P01116-2 other isoform, or with tags, fused parts or gaps G12D): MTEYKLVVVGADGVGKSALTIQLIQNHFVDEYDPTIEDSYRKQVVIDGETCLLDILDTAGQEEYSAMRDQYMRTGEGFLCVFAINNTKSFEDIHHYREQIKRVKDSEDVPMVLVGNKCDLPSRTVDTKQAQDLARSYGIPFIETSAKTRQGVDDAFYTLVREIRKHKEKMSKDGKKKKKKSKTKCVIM

Compound	IC50 (KRAS WT; [1])	IC50 (KRAS G12D)	IC50 (KRAS WT; read-out: KRas HTRF IC50)
Cc1cc(N)nc(-c2nc3c4c(ncnc4c2F)N2C[C@H]4CC[C@H](N4)[C@H]2CO3)c1C(F)(F)F [Compound 52, 6-((5aS,6S,9R)-1-Fluoro-5a,6,7,8,9,10-hexahydro-5H-4-oxa-3,10a,11,13,14-pentaaza-6,9-methanonaphtho[1,8-ab]heptalen-2-yl)-4-methyl-5-(trifluoromethyl)pyridin-2-amine]	194000 nM	2140 nM	
Cc1cc(N)cc(-c2nc3c4c(nc(OC[C@@H]5CC[C@H]6COCCN65)nc4c2F)N2C[C@H]4CC[C@H](N4)[C@H]2[C@H](C)O3)c1CC(F)F [Compound 230, 4-(2,2-Difluoroethyl)-3-((5S,5aS,6S,9R)-1-fluoro-12-(((6S,8aS)-hexahydro-1H-pyrrolo[2,1-c][1,4]oxazin-6-yl)methoxy)-5-methyl-5a,6,7,8,9,10-hexahydro-5H-4-oxa-3,10a,11,13,14-pentaaza-6,9-methanonaphtho[1,8-ab]heptalen-2-yl)-5-methylaniline]		1.13 nM	213 nM
Cc1nc(N)c(Cl)c(-c2nc3c4c(nc(OC[C@@]56CCCN5C[C@H](F)C6)nc4c2F)N2C[C@H]4CC[C@H](N4)[C@H]2[C@H](C)O3)c1C(F)(F)F [Compound 197, 3-Chloro-4-((5S,5aS,6S,9R)-1-fluoro-12-(((2R,7aS)-2-fluorotetrahydro-1H-pyrrolizin-7a(5H)-yl)methoxy)-5-methyl-5a,6,7,8,9,10-hexahydro-5H-4-oxa-3,10a,11,13,14-pentaaza-6,9-methanonaphtho[1,8-ab]heptalen-2-yl)-6-methyl-5-(trifluoromethyl)pyridin-2-amine]		0.46 nM	59.8 nM
C[C@@H]1Oc2nc(-c3cc(N)c(F)c(F)c3C(F)(F)F)c(F)c3nc(OC[C@@]45CCCN4C[C@H](F)C5)nc(c23)N2C[C@H]3CC[C@H](N3)[C@@H]12 [Compound 15, 2,3-difluoro-5-((5S,5aS,6S,9R)-1-fluoro-12-(((2R,7aS)-2-fluorotetrahydro-1H-pyrrolizin-7a(5H)-yl)methoxy)-5-methyl-5a,6,7,8,9,10-hexahydro-5H-4-oxa-3,10a,11,13,14-pentaaza-6,9-methanonaphtho[1,8-ab]heptalen-2-yl)-4-(trifluoromethyl)aniline]	0.448 nM	0.07 nM	
Cc1nc(N)cc(-c2nc3c4c(nc(OC[C@]56CCCN5CC(F)(F)C6)nc4c2F)N2C[C@H]4CC[C@H](N4)[C@H]2[C@H](C)O3)c1C(F)(F)F [Compound 217, 4-((5S,5aS,6S,9R)-12-(((R)-2,2-difluorotetrahydro-1H-pyrrolizin-7a(5H)-yl)methoxy)-1-fluoro-5-methyl-5a,6,7,8,9,10-hexahydro-5H-4-oxa-3,10a,11,13,14-pentaaza-6,9-methanonaphtho[1,8-ab]heptalen-2-yl)-6-methyl-5-(trifluoromethyl)pyridin-2-amine]		3.39 nM	242 nM
Cc1c(F)c(N)c(F)c(-c2nc3c4c(nc(OC[C@@]56CCCN5C[C@H](F)C6)nc4c2F)N2C[C@H]4CC[C@H](N4)[C@H]2[C@H](C)O3)c1Cl [Compound 195, 4-Chloro-2,6-difluoro-3-((5S,5aS,6S,9R)-1-fluoro-12-(((2R,7aS)-2-fluorotetrahydro-1H-pyrrolizin-7a(5H)-yl)methoxy)-5-methyl-5a,6,7,8,9,10-hexahydro-5H-4-oxa-3,10a,11,13,14-pentaaza-6,9-methanonaphtho[1,8-ab]heptalen-2-yl)-5-methylaniline]		0.44 nM	108 nM
Cc1nc(N)cc(-c2nc3c4c(nc(OCC5(CN6C[C@H](F)C[C@H](F)C6)CC5)nc4c2F)N2C[C@H]4CC[C@H](N4)[C@H]2[C@H](C)O3)c1C(F)(F)F [Compound 269, 4-((5S,5aS,6S,9R)-12-((1-(((3S,5R)-3,5-difluoropiperidin-1-yl)methyl)cyclopropyl)methoxy)-1-fluoro-5-methyl-5a,6,7,8,9,10-hexahydro-5H-4-oxa-3,10a,11,13,14-pentaaza-6,9-methanonaphtho[1,8-ab]heptalene-2-yl)-6-methyl-5-(trifluoromethyl)pyridin-2-amine]		0.42 nM	105 nM
Cc1nc(N)cc(-c2nc3c4c(nc(OCC5(CN6CCC(C(F)F)C6)CC5)nc4c2F)N2C[C@H]4CC[C@H](N4)[C@H]2[C@H](C)O3)c1C(F)(F)F (stereo partly drawn) [Compound 276, 4-((5S,5aS,6S,9R)-12-((1-((3-(difluoromethyl)pyrrolidin-1-yl)methyl)cyclopropyl)methoxy)-1-fluoro-5-methyl-5a,6,7,8,9,10-hexahydro-5H-4-oxa-3,10a,11,13,14-pentaaza-6,9-methanonaphtho[1,8-ab]heptalen-2-yl)-6-methyl-5-(trifluoromethyl)pyridin-2-amine]		0.26 nM	8.91 nM
CO[C@@H]1CCN(CC2(COc3nc4c5c(nc(-c6cc(N)nc(C)c6C(F)(F)F)c(F)c5n3)O[C@@H](C)[C@@H]3[C@@H]5CC[C@H](CN43)N5)CC2)C[C@@H]1F [Compound 275, 4-((5S,5aS,6S,9R)-1-fluoro-12-((1-(((3S,4R)-3-fluoro-4-methoxypiperidin-1-yl)methyl)cyclopropyl)methoxy)-5-methyl-5a,6,7,8,9,10-hexahydro-5H-4-oxa-3,10a,11,13,14-pentaaza-6,9-methanonaphtho[1,8-ab]heptalene-2-yl)-6-methyl-5-(trifluoromethyl)pyridin-2-amine]		0.48 nM	23.3 nM
Cc1nc(N)c(F)c(-c2nc3c4c(nc(OC[C@@]56CCCN5C[C@H](F)C6)nc4c2F)N2C[C@H]4CC[C@H](N4)[C@H]2[C@H](C(F)(F)F)O3)c1C(F)(F)F [Compound 256, 3-Fluoro-4-((5R,5aS,6S,9R)-1-fluoro-12-(((2R,7aS)-2-fluorotetrahydro-1H-pyrrolizin-7a(5H)-yl)methoxy)-5-(trifluoromethyl)-5a,6,7,8,9,10-hexahydro-5H-4-oxa-3,10a,11,13,14-pentaaza-6,9-methanonaphtho[1,8-ab]heptalen-2-yl)-6-methyl-5-(trifluoromethyl)pyridin-2-amine]		0.82 nM	17 nM
Cc1cc(N)c(F)c(-c2nc3c4c(nc(OC[C@@]56CCCN5CC5(CC5(F)F)C6)nc4c2F)N2C[C@H]4CC[C@H](N4)[C@H]2[C@H](C)O3)c1C(F)(F)F (stereo partly drawn) [Compound 227, 3-((5S,5aS,6S,9R)-12-(((7a′S)-2,2-Difluorodihydro-1′H,3′H-spiro[cyclopropane-1,2′-pyrrolizin]-7a′(5′H)-yl)methoxy)-1-fluoro-5-methyl-5a,6,7,8,9,10-hexahydro-5H-4-oxa-3,10a,11,13,14-pentaaza[6,9]methanonaphtho[1,8-ab]heptalene-2-yl)-2-fluoro-5-methyl-4-(trifluoromethyl)aniline]		0.21 nM	0.938 nM
Cc1nc(N)cc(-c2nc3c4c(nc(OCC56CCN5CC(F)(F)C6)nc4c2F)N2C[C@H]4CC[C@H](N4)[C@H]2[C@H](C)O3)c1C(F)(F)F (stereo partly drawn) [Compound 214, 4-((5S,5aS,6S,9R)-12-((3,3-Difluoro-1-azabicyclo[3.2.0]heptan-5-yl)methoxy)-1-fluoro-5-methyl-5°,6,7,8,9,10-hexahydro-5H-4-oxa-3,10°,11,13,14-pentaaza-6,9-methanonaptho[1,8-ab]heptalen-2-yl)-6-methyl-5-(trifluoromethyl)pyridin-2-amine]		0.42 nM	55.7 nM
C[C@@H]1Oc2nc(-c3cc(N)c(F)c(Cl)c3CC(F)F)c(F)c3nc(OC[C@@]45CCCN4C[C@H](F)C5)nc(c23)N2C[C@H]3CC[C@H](N3)[C@@H]12 [Compound 186, 3-Chloro-4-(2,2-difluoroethyl)-2-fluoro-5-((5S,5aS,6S,9R)-1-fluoro-12-(((2R,7aS)-2-fluorotetrahydro-1H-pyrrolizin-7a(5H)-yl)methoxy)-5-methyl-5a,6,7,8,9,10-hexahydro-5H-4-oxa-3,10a,11,13,14-pentaaza-6,9-methanonaphtho[1,8-ab]heptalene-2-yl)aniline]		0.1 nM	5.61 nM
Fc1c(-c2cccc3cccc(Cl)c23)nc2c3c(ncnc13)N1C[C@H]3CC[C@H](N3)[C@H]1CO2 [Compound 53, (5aS,6S,9R)-2-(8-Chloronaphthalen-1-yl)-1-fluoro-5a,6,7,8,9,10-hexahydro-5H-4-oxa-3,10a,11,13,14-pentaaza-6,9-methanonaphtho[1,8-ab]heptalene]	200000 nM	22200 nM	
Cc1c(F)c(N)cc(-c2nc3c4c(nc(OC[C@@]56CCCN5C[C@H](OCc5ccc(-c7ccccc7C#N)cc5)C6)nc4c2F)N2C[C@H]4CC[C@H](N4)[C@H]2[C@H](C)O3)c1C(F)(F)F [Compound 32, 4′-((((2R,7aS)-7a-((((5S,5aS,6S,9R)-2-(5-amino-4-fluoro-3-methyl-2-(trifluoromethyl)phenyl)-1-fluoro-5-methyl-5a,6,7,8,9,10-hexahydro-5H-4-oxa-3,10a,11,13,14-pentaaza-6,9-methanonaphtho[1,8-ab]heptalen-12-yl)oxy)methyl)hexahydro-1H-pyrrolizin-2-yl)oxy)methyl)-[1,1′-biphenyl]-2-carbonitrile]	0.579 nM	0.2 nM	
Cc1cc(N)nc(-c2nc3c4c(nc(OC[C@@]56CCCN5CC5(CC5(F)F)C6)nc4c2F)N2C[C@H]4CC[C@H](N4)[C@H]2[C@H](C)O3)c1C(F)(F)F (stereo partly drawn) [Compound 47, 6-((5S,5aS,6S,9R)-12-(((7a′S)-2,2-difluorodihydro-1′H,3′H-spiro[cyclopropane-1,2′-pyrrolizin]-7a′(5′H)-yl)methoxy)-1-fluoro-5-methyl-5a,6,7,8,9,10-hexahydro-5H-4-oxa-3,10a,11,13,14-pentaaza[6,9]methanonaphtho[1,8-ab]heptalen-2-yl)-4-methyl-5-(trifluoromethyl)pyridin-2-amine]	4.43 nM	0.443 nM	
